Data published in patent publication US8278054B2, “Diagnosis of metal allergy through cytokine release by T-cells in vitro” (Mabtech AB, priority 2001, dated 2012).
Where “and” joins values, the source holds several entries; their conditions need not be identical. Equal entries are not always repeated.

Experiments:
[1] = tested on: PBMC; assay: Proliferative response of PBMC (stimulation index); type: cell-based, human; conditions: one line per subject
Description: (§1) Blood from ACD patients or control individuals were obtained by venipuncture and collected in sterile heparinised glass vials. Peripheral blood mononuclear cells (PBMC) were separated by density gradient centrifugation over Ficoll-Hypaque. After separation, PBMC were washed twice in medium (RPMI 1640 containing glutamin, Hepes, Penicillin/Streptomycin and 10% fetal calf serum (FCS)) and used fresh for experiments. Alternatively, PBMC were frozen in 90% FCS and 10% dimethylsulfoxide and kept in liquid nitrogen until tested. Prior to being tested, frozen cells were thawed at 37° C. and medium was added dropwise whereafter the cells were washed twice with medium.
The PBMC were stimulated with various concentrations of NiCl2 and both proliferative responses and cytokine responses were analysed. NiCl2 at a stock concentration of 50 mM was mixed with medium and incubated for more than five minutes before being added to cells. PBMC diluted to a cell concentration of 4-6×10^6 cells/ml were mixed with an equal volume of NiCl2 diluted in medium resulting in a final concentration of 2×10^6 cells/ml and NiCl2 at concentrations ranging from 10-100 μM. The cell suspensions were incubated in plastic vials for 4 h at 37° C. in a humidified incubator. […]

[2] = tested on: IL-13 producing PBMC; assay: IL-13 ELISpot assay; type: cell-based, human; conditions: for IL-13 production in response to NiCl2 (ELISpot): 50 μM NiCl2, FIG. 1
Description: as §1
(§2) The PBMC were stimulated with various concentrations of NiCl2 and both proliferative responses and cytokine responses were analysed. NiCl2 at a stock concentration of 50 mM was mixed with medium and incubated for more than five minutes before being added to cells. PBMC diluted to a cell concentration of 4-6×10^6 cells/ml were mixed with an equal volume of NiCl2 diluted in medium resulting in a final concentration of 2×10^6 cells/ml and NiCl2 at concentrations ranging from 10-100 μM. The cell suspensions were incubated in plastic vials for 4 h at 37° C. in a humidified incubator. In parallel with incubating PBMC with NiCl2, PBMC at the same concentration were incubated with mitogen (1 μg phytohemagglutinin (PHA)/ml), control antigens (10 μg tetanus toxoid (TT) or purified protein derivative (PPD)/ml) or in the absence of stimuli.
(§3) Matched pairs of monoclonal antibodies (mAb) to human IL-4, IL-5 or IL-13 were used for the ELISpot assays (Mabtech AB, Stockholm, Sweden). […]
(§4) Ninetysix-well plates with polyvinylidene difluoride membranes (MAIPS45-10, Millipore) were treated with 100 μl of 70% EtOH for 2-10 min followed by six washes with 200 μl sterile deionized H2O. […] After rinsing the plates with tap water, the plates were dried and spots were counted using a light microscope. […]

[3] = tested on: IL-4 producing PBMC; assay: IL-4 ELISpot assay; type: cell-based, human; conditions: for IL-4 producing cells/200 000 PBMC after stimulation with 50 μM NiCl2 / IL-4 producing cells/200 000 PBMC, 50-0 / IL-4 producing cells/200 000 PBMC after stimulation with 100 μM NiCl2 / IL-4 producing cells/200 000 PBMC, 100-0: one line per subject; for IL-4 producing cells/200 000 PBMC, 50-0: 50 μM NiCl2 after subtraction of spontaneous spots; for IL-4 producing cells/200 000 PBMC, 100-0: 100 μM NiCl2 after subtraction of spontaneous spots
Description: as §1, §2
Matched pairs of monoclonal antibodies (mAb) to human IL-4, IL-5 or IL-13 were used for the ELISpot assays (Mabtech AB, Stockholm, Sweden). For each pair, one mAb was used as a capture mAb: 82.4 (IL-4), TRFK5 (IL-5) and IL13-I (IL-13) and the other for detection, 12.1 (IL-4), 5A10 (IL-5) and IL13-II (IL-13). MAbs used for detection were biotinylated.
Ninetysix-well plates with polyvinylidene difluoride membranes (MAIPS45-10, Millipore) were treated with 100 μl of 70% EtOH for 2-10 min followed by six washes with 200 μl sterile deionized H2O. To each well, 100 μl of capture mAb at a concentration of 15 μg/ml in phosphate-buffered saline (PBS) was added and incubated over night at +4° C. The plates were washed three times with 200 μl or sterile PBS and three times with 200 μl medium containing 2% FCS. PBMC incubated for 4 h with or without stimuli in test tubes were suspended and 100 μl cell suspension (2×10^5 cells) was added to each well. After an additional incubation of 44 h, the wells were emptied and washed six times with 200 μl PBS. Biotinylated detection mAb at 1 μg/ml in PBS containing 0.5% FCS was added at a volume of 100 μl and incubated for 2 h at room temperature whereafter the wells were washed six times with PBS. Subsequently, 100 μl of SA-ALP (Streptavidin-Alkaline phosphatase, Mabtech) at 50 ng/ml in PBS with 0.5% FCS was added to each well and incubated for 1 h followed by washing in PBS six times before developing the wells with 100 μl nitroblue tetraxolium (NBT)/5-bromo-4-chloro-3-indolyl phosphate (BCIP) substrate (Sigma) for approximately 1 h. After rinsing the plates with tap water, the plates were dried and spots were counted using a light microscope.
(§5) Matched pairs of monoclonal antibodies (mAb) to human IL-4, IL-5, IL-13 or IFN-γ were used for ELISpot assays (Mabtech AB, Stockholm, Sweden). As in Example 4 above, for each pair, one mAb was used as a capture mAb and the other for detection. MAbs used for detection were biotinylated.
Ninetysix-well plates with polyvinylidene difluoride membranes (MAIPS45-10, Millipore) were treated with 100 μl of 70% EtOH for 2-10 min followed by six washes with 200 μl sterile deionized H2O. To each well, 100 μl of capture mAb at a concentration of 15 μg/ml in phosphate-buffered saline (PBS) was added and incubated over night at +4° C. The plates were washed three times with 200 μl or sterile PBS and three times with 200 μl medium containing 2% FCS. […]

[4] = tested on: IL-5 producing PBMC; assay: IL-5 ELISpot assay; type: cell-based, human; conditions: for IL-5 production in response to NiCl2 (ELISpot): 50 μM NiCl2, FIG. 1
Description: as §1, §2, §3, §4

[5] = tested on: ACD patients and control individuals; assay: Epicutaneous patch test; type: in vivo, human; conditions: 48 h
Procedure: Prior to the patch testing of the control group, blood samples for ELISpot analysis were taken to avoid an impact of the patch test on the ELISpot analysis. Epicutaneous patch tests using 5% NiSO4 in petrolatum was applied for 48 h whereafter the reaction, sites were inspected. […] All ACD patients were selected based on previous patch tests giving scores of 2+ or 3+ having 3+ as the highest score.
Prior to the patch testing of the control group, blood samples for ELISpot analysis were taken to avoid an impact of the patch test on the ELISpot analysis. Epicutaneous patch tests were applied for 48 h whereafter the reaction sites were inspected. […] This patient also gave a negative result in the ELISpot assay (see Table 2).

[6] = tested on: IFN-γ producing PBMC; assay: IFN-γ ELISpot assay; type: cell-based, human; conditions: Kathon stimulation, spontaneous spots subtracted; allergic individuals, one line per patient
Procedure: Peripheral blood mononuclear cells (PBMC) were obtained from Kathon (methylisothiazolinone) allergy patients or control individuals as described in Example 2.
The PBMC were stimulated with Kathon (methylisothiazolinone) and cytokine responses were analysed.
as §5
Ninetysix-well plates with polyvinylidene difluoride membranes (MAIPS45-10, Millipore) were treated with 100 μl of 70% EtOH for 2-10 min followed by six washes with 200 μl sterile deionized H2O. To each well, 100 μl of capture mAb at a concentration of 15 μg/ml in phosphate-buffered saline (PBS) was added and incubated over night at +4° C. The plates were washed three times with 200 μl or sterile PBS and three times with 200 μl medium containing 2% FCS. PBMC incubated for 4 h with or without stimuli in test tubes were suspended and 100 μl cell suspension (2×10^5 cells) was added to each well. After an additional incubation of 44 h, the wells were emptied and washed six times with 200 μl PBS. […] After rinsing the plates with tap water, the plates were dried and spots were counted using a light microscope.

[7] = PBMC from allergic individuals (n=8)
[8] = PBMC from non-allergic individuals (n=7)
[9] = Kathon stimulation, spontaneous spots subtracted, allergic individuals, one line per patient

## [Cl][Ni][Cl] [NiCl2]
[1]; PBMC of allergic group
  Proliferation (SI) (50 μM NiCl2): higher in the group of allergic individuals and 15.9 and 8.4 and 15.4 and 16.2 and 11.8 and 24.9 and 11.0 and 31.6 and 44.8 and 10.1 and 92.2
[1]; PBMC of non-allergic group
  Proliferation (SI) (50 μM NiCl2): 3.1 (2×) and 0.9 and 1.2 and 2.0 and 3.3 and 6.8 and 5.1 and 8.2
[2]; [7]
  IL-13 production in response to NiCl2 (ELISpot): shown to produce
[2]; [8]
  IL-13 production in response to NiCl2 (ELISpot): this was not seen
[3]; 10 μM NiCl2, data not shown
  IL-4 ELISpot mean values, allergic versus non-allergic group: higher mean values for the allergic group
[3]; allergic group
  IL-4 producing cells/200 000 PBMC after stimulation with 50 μM NiCl2: 137 cells/200 000 PBMC and 48 cells/200 000 PBMC and 19 cells/200 000 PBMC and 26 cells/200 000 PBMC and 127 cells/200 000 PBMC and 27 cells/200 000 PBMC and 60 cells/200 000 PBMC and 9 cells/200 000 PBMC and 8 cells/200 000 PBMC and 13 cells/200 000 PBMC and 23 cells/200 000 PBMC
  IL-4 producing cells/200 000 PBMC, 50-0: 134 cells/200 000 PBMC and 47 cells/200 000 PBMC and 17 cells/200 000 PBMC and 21 cells/200 000 PBMC (2×) and 118 cells/200 000 PBMC and 25 cells/200 000 PBMC and 55 cells/200 000 PBMC and 5 cells/200 000 PBMC and 7 cells/200 000 PBMC and 12 cells/200 000 PBMC
  IL-4 producing cells/200 000 PBMC after stimulation with 100 μM NiCl2: 21 cells/200 000 PBMC and 28 cells/200 000 PBMC (2×) and 122 cells/200 000 PBMC and 30 cells/200 000 PBMC and 63 cells/200 000 PBMC and 16 cells/200 000 PBMC and 18 cells/200 000 PBMC and 24 cells/200 000 PBMC
  IL-4 producing cells/200 000 PBMC, 100-0: 19 cells/200 000 PBMC and 23 cells/200 000 PBMC (2×) and 113 cells/200 000 PBMC and 28 cells/200 000 PBMC and 58 cells/200 000 PBMC and 12 cells/200 000 PBMC and 17 cells/200 000 PBMC and 25 cells/200 000 PBMC
[3]; non-allergic group
  IL-4 producing cells/200 000 PBMC after stimulation with 50 μM NiCl2: 3 cells/200 000 PBMC (2×) and 4 cells/200 000 PBMC (2×) and 9 cells/200 000 PBMC and 7 cells/200 000 PBMC and 1 cells/200 000 PBMC and 2 cells/200 000 PBMC (2×)
  IL-4 producing cells/200 000 PBMC, 50-0: 1 cells/200 000 PBMC and 2 cells/200 000 PBMC and 4 cells/200 000 PBMC and 0 cells/200 000 PBMC (6×)
  IL-4 producing cells/200 000 PBMC after stimulation with 100 μM NiCl2: 5 cells/200 000 PBMC and 8 cells/200 000 PBMC (2×) and 4 cells/200 000 PBMC (2×) and 14 cells/200 000 PBMC and 1 cells/200 000 PBMC and 6 cells/200 000 PBMC
  IL-4 producing cells/200 000 PBMC, 100-0: 3 cells/200 000 PBMC (2×) and 1 cells/200 000 PBMC (2×) and 5 cells/200 000 PBMC and 2 cells/200 000 PBMC and 0 cells/200 000 PBMC and 4 cells/200 000 PBMC
[4]; [7]
  IL-5 production in response to NiCl2 (ELISpot): shown to produce
[4]; [8]
  IL-5 production in response to NiCl2 (ELISpot): this was not seen

## Cn1sccc1=O [Kathon, methylisothiazolinone]
[2]; [9]
  Number of responding cells (spots) per 200,000 cells, IL-13: 51 spots per 200,000 cells and 50 spots per 200,000 cells and 0 spots per 200,000 cells and 19 spots per 200,000 cells
[3]; [9]
  Number of responding cells (spots) per 200,000 cells, IL-4: 14 spots per 200,000 cells and 21 spots per 200,000 cells and 0 spots per 200,000 cells and 3 spots per 200,000 cells
[5]; Kathon (methylisothiazolinone), non-allergic controls
  Patch test response: None of the controls responded positively
[6]
  Number of responding cells (spots) per 200,000 cells, IFN-gamma: 39 spots per 200,000 cells and 113 spots per 200,000 cells and 0 spots per 200,000 cells and 21 spots per 200,000 cells
[4]; [9]
  Number of responding cells (spots) per 200,000 cells, IL-5: 3 spots per 200,000 cells and 5 spots per 200,000 cells and 0 spots per 200,000 cells and 2 spots per 200,000 cells

## O=S(=O)([O-])[O-].[Ni+2] [NiSO4]
[5]; 5% NiSO4 in petrolatum, non-allergic group, one line per subject
  Patch test reactivity: None of the controls responded positively
